This is an account of results in patent US20140005163A1 (NOVARTIS AG, priority 2010, published 2014).

For assay [1], the system named is PKB Ser473 phosphorylation in Rat1-myr-HA-p110 beta cells. Put plainly: Reverse protein array assay, PKB Ser473 phosphorylation in Rat1-myr-p110 beta cells. The assay is classed as cell-based. The conditions noted are these: 0.5 h, pAkt Ser473, 30 minutes incubation, read-out: p-PKB IC50. An outline of the steps:
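Lysates were arrayed at four dilutions, and phospho-PKB Ser473 was quantified by relative fluorescence signal. They came from Rat1-myr-HA-p110 alpha, beta or delta cells exposed for 30 min at 37 °C to an 8-point compound series with 0.2% DMSO constant.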

In the next assay the target is T1, PI3K gamma (Homo sapiens, UniProt P48736).
T1 construct: His tag (C); made in house; host or cells: baculovirus (pVL1393); Tn5 or TiniPro insect cells; construct from Roger Williams lab, MRC LMB
T1 sequence (P48736 144-1102 limits assumed): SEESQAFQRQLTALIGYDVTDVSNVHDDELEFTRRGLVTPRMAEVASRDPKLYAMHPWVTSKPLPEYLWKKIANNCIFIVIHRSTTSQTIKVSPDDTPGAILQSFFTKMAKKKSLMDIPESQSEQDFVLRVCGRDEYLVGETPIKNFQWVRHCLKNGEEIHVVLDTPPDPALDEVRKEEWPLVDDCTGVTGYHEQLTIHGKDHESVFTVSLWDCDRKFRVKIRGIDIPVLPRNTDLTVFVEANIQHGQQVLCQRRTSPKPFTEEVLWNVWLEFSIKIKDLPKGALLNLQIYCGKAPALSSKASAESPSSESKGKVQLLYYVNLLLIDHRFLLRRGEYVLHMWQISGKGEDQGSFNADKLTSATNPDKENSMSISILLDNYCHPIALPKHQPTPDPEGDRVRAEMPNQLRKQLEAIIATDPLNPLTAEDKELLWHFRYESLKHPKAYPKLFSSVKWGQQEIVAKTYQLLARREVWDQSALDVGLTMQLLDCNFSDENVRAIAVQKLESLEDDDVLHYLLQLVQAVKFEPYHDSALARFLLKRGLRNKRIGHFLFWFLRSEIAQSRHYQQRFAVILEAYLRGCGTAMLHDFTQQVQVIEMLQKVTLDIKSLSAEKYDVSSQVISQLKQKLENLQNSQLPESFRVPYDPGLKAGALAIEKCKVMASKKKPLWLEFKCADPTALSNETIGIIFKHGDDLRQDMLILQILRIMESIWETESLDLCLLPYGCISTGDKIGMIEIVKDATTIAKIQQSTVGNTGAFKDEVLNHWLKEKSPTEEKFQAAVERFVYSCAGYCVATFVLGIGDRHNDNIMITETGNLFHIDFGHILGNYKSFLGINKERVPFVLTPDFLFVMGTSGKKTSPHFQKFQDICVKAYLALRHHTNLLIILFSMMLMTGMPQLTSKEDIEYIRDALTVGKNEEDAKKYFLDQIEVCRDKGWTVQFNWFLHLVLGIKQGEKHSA
Kind of assay: PI3K gamma kinase assay (Kinase-Glo luminescence). The assay is classed as biochemical. An outline of the steps: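 Luminescent ATP-depletion (Kinase-Glo) assay with 150 nM PI3Kγ, 1 μM ATP and 10 μg/mL phosphatidylinositol in 10 mM Tris-HCl pH 7.5, 3 mM MgCl2, 50 mM NaCl, 0.05% CHAPS, 1 mM DTT; 120 min at room temperature. Eight-point dilutions; IC50 by four-parameter logistic fit.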
(Kinase-Glo measures the ATP left after a reaction by luminescence.)

For orientation: IC50 means the point on the concentration scale where inhibition reaches its midpoint.

As for `CCOc1ccc(-c2ccc3ncc4c(c3c2)n(-c2c(C)nn(C)c2C)c(=O)n4C)cc1OCC` [Example 27.2, 8-(3,4-Diethoxy-phenyl)-3-methyl-1-(1,3,5-trimethyl-1H-pyrazol-4-yl)-1,3-dihydro-imidazo[4,5-c]quinolin-2-one], the figures for the IC50 (in assay [1]; on PI3K gamma) were 389 nM and 137 nM, respectively.
For `COc1ccc(-c2ccc3ncc4c(c3c2)n(-c2cn(C(C)C)nc2C)c(=O)n4C)cc1OC` [Example 1.5, 8-(3,4-Dimethoxy-phenyl)-1-(1-isopropyl-3-methyl-1H-pyrazol-4-yl)-3-methyl-1,3-dihydro-imidazo[4,5-c]quinolin-2-one], in that order: 23 nM and 132 nM.
On the same counts, the results for `Cc1nn(C)cc1-n1c(=O)n(C)c2cnc3ccc(-c4cccc(S(=O)(=O)N5CCCC5)c4)cc3c21` [Example 44, 1-(1,3-Dimethyl-1H-pyrazol-4-yl)-3-methyl-8-[3-(pyrrolidine-1-sulfonyl)-phenyl]-1,3-dihydro-imidazo[4,5-c]quinolin-2-one] are 42 nM and 237 nM.
On to `Cc1nn(C)cc1-n1c(=O)n(C)c2cnc3ccc(-c4ccc(C(N)=O)nc4)cc3c21` [Example 14, 5-[1-(1,3-Dimethyl-1H-pyrazol-4-yl)-3-methyl-2-oxo-2,3-dihydro-1H-imidazo[4,5-c]quinolin-8-yl]-pyridine-2-carboxylic acid amide], for which the IC50 worked out at 18 nM in assay [1] and 212 nM on PI3K gamma.
In the case of `COC(=O)c1ccc(-c2ccc3ncc4c(c3c2)n(-c2cn(C)nc2C)c(=O)n4C)cn1` [Example 100, 5-[1-(1,3-Dimethyl-1H-pyrazol-4-yl)-3-methyl-2-oxo-2,3-dihydro-1H-imidazo[4,5-c]quinolin-8-yl]-pyridine-2-carboxylic acid methyl ester], the IC50 stood at 14 nM in assay [1] and 287 nM at PI3K gamma.
On the same counts, the results for `Cc1nn(C)cc1-n1c(=O)n(C)c2cnc3ccc(-c4cnc5ccccc5c4)cc3c21` [Example 38, 1-(1,3-Dimethyl-1H-pyrazol-4-yl)-3-methyl-8-quinolin-3-yl-1,3-dihydro-imidazo[4,5-c]quinolin-2-one] are 9 nM and 123 nM.
For `CCOc1cncc(-c2ccc3ncc4c(c3c2)n(-c2cn(CC(=O)N(C)C)nc2C)c(=O)n4C)c1` [Example 56.2, 2-{4-[8-(5-Ethoxy-pyridin-3-yl)-3-methyl-2-oxo-2,3-dihydro-imidazo[4,5-c]quinolin-1-yl]-3-methyl-pyrazol-1-yl}-N,N-dimethyl-acetamide], in that order: 409 nM and 199 nM.
For `Cc1nn(C)cc1-n1c(=O)n(C)c2cnc3ccc(-c4cnc5c(ccn5C)c4)cc3c21` [Example 116, 1-(1,3-Dimethyl-1H-pyrazol-4-yl)-3-methyl-8-(1-methyl-1H-pyrrolo[2,3-b]pyridin-5-yl)-1,3-dihydro-imidazo[4,5-c]quinolin-2-one], in that order: 18 nM and 236 nM.
As for `CCOc1ccc(-c2ccc3ncc4c(c3c2)n(-c2cn(CC)nc2C)c(=O)n4C)cc1OC` [Example 29.1, 8-(4-Ethoxy-3-methoxy-phenyl)-1-(1-ethyl-3-methyl-1H-pyrazol-4-yl)-3-methyl-1,3-dihydro-imidazo[4,5-c]quinolin-2-one], the half-inhibitory concentration (IC50) is 93 nM in assay [1] and 69 nM at PI3K gamma.
On the same counts, the results for `CNC(=O)c1ccc(-c2ccc3ncc4c(c3c2)n(-c2c(C)nn(C)c2C)c(=O)n4C)cn1` [Example 15.2, 5-[3-Methyl-2-oxo-1-(1,3,5-trimethyl-1H-pyrazo1-4-yl)-2,3-dihydro-1H-imidazo[4,5-c]quinolin-8-yl]-pyridine-2-carboxylic acid methylamide] are 530 nM and 548 nM.
For `COc1ccc(-c2ccc3ncc4[nH]c(=O)n(-c5cn(C)nc5C)c4c3c2)cn1` [Example 109, 1-(1,3-Dimethyl-1H-pyrazol-4-yl)-8-(6-methoxy-pyridin-3-yl)-1,3-dihydro-imidazo[4,5-c]quinolin-2-one], in that order: 89 nM and 286 nM.
As for `Cc1nn(C)cc1-n1c(=O)n(C)c2cnc3ccc(-c4ccc(OCCCO)nc4)cc3c21` [Example 108, 1-(1,3-Dimethyl-1H-pyrazol-4-yl)-8-[6-(3-hydroxy-propoxy)-pyridin-3-yl]-3-methyl-1,3-dihydro-imidazo[4,5-c]quinolin-2-one], the figures for the IC50 (in assay [1]; on PI3K gamma) were 128 nM and 535 nM, respectively.
For `Cc1nn(C)cc1-n1c(=O)n(C)c2cnc3ccc(-c4ccc(N5CCC5)nc4)cc3c21` [Example 5.1, 8-(6-Azetidin-1-yl-pyridin-3-yl)-1-(1,3-dimethyl-1H-pyrazol-4-yl)-3-methyl-1,3-dihydro-imidazo[4,5-c]quinolin-2-one], in that order: 8 nM and 309 nM.
Take `Cc1nn(C)cc1-n1c(=O)n(C)c2cnc3ccc(-c4ccc(-n5cccn5)cc4)cc3c21` [Example 51.1, 1-(1,3-Dimethyl-1H-pyrazol-4-yl)-3-methyl-8-(4-pyrazol-1-yl-phenyl)-1,3-dihydro-imidazo[4,5-c]quinolin-2-one]: the IC50 was below 5 nM in assay [1] and 213 nM on PI3K gamma.
As to `CNc1ncc(-c2ccc3ncc4c(c3c2)n(-c2c(C)nn(C)c2C)c(=O)n4C)cc1C(F)(F)F` [Example 144.1, 3-Methyl-8-(6-methylamino-5-trifluoromethyl-pyridin-3-yl)-1-(1,3,5-trimethyl-1H-pyrazol-4-yl)-1,3-dihydro-imidazo[4,5-c]quinolin-2-one], the IC50 in assay [1] is 49 nM.
The same measure, in the same setting: the figure for `CNc1cncc(-c2ccc3ncc4c(c3c2)n(-c2cn(C(C)C)nc2C)c(=O)n4C)c1` [Example 180.2, 1-(1-Isopropyl-3-methyl-1H-pyrazol-4-yl)-3-methyl-8-(5-methylamino-pyridin-3-yl)-1,3-dihydro-imidazo[4,5-c]quinolin-2-one] is 32 nM.
As for `Cc1nn(C)cc1-n1c(=O)n(C)c2cnc3ccc(-c4cncc(N(C)C(C)C)c4)cc3c21` [Example 173, 1-(1,3-Dimethyl-1H-pyrazol-4-yl)-8-[5-(isopropyl-methyl-amino)-pyridin-3-yl]-3-methyl-1,3-dihydro-imidazo[4,5-c]quinolin-2-one], in assay [1], the IC50 is 29 nM.
The same measure, in the same setting: the figure for `COc1ccc(-c2ccc3ncc4c(c3c2)n(-c2cc(C)nn2C)c(=O)n4C)cc1OC` [Example 1.4, 8-(3,4-Dimethoxy-phenyl)-1-(2,5-dimethyl-2H-pyrazol-3-yl)-3-methyl-1,3-dihydro-imidazo[4,5-c]quinolin-2-one] is 157 nM.
Same read-out and setting: the figure for `CCNc1cc(-c2ccc3ncc4c(c3c2)n(-c2cn(CC)nc2C)c(=O)n4C)cnc1C` [Example 87.3, 8-(5-Ethylamino-6-methyl-pyridin-3-yl)-1-(1-ethyl-3-methyl-1H-pyrazol-4-yl)-3-methyl-1,3-dihydro-imidazo[4,5-c]quinolin-2-one] is below 5 nM; for `Cc1nn(C)cc1-n1c(=O)n(C)c2cnc3ccc(-c4cnc(CO)c(OC(CF)CF)c4)cc3c21` [Example 192, 1-(1,3-Dimethyl-1H-pyrazol-4-yl)-8-[5-(2-fluoro-1-fluoromethyl-ethoxy)-6-hydroxymethyl-pyridin-3-yl]-3-methyl-1,3-dihydro-imidazo[4,5-c]quinolin-2-one] it is 38 nM.
